Data set [1] concerns the target T1, recombinant integrase (HIV-1 integrase) (Human immunodeficiency virus type 1 group M subtype B, UniProt P04585).
T1 construct: Assays for the strand transfer activity of integrase were conducted in accordance with WO 02/30930 for recombinant integrase
Description: HIV-1 integrase assay: strand transfer catalyzed by recombinant integrase. The format is biochemical. The following applies: strand transfer activity. The protocol: HIV-1 Integrase Assay: Strand Transfer Catalyzed by Recombinant Integrase
Assays for the strand transfer activity of integrase were conducted in accordance with WO 02/30930 for recombinant integrase. […] For example, the compounds prepared in Examples 1 to 5 were tested in the integrase assay and found to have the IC50 values in Table B. (Compounds 6A and 6B were not tested in this assay.)
Further description on conducting the assay using preassembled complexes is found in Wolfe, A. L. et al., J. Virol. 1996, 70: 1424-1432, Hazuda et al., J. Virol. 1997, 71: 7005-7011; Hazuda et al., Drug Design and Discovery 1997, 15: 17-24; and Hazuda et al., Science 2000, 287: 646-650.

The test system of the next data set is wild type IIIB. Description: Single cycle infectivity assay in HeLa P4-2 cells, wild type virus. It counts as cell-based, HIV.
Another data set concerns HIV-1. The experiment in a line: Inhibition of acute HIV-1 infection of T-lymphoid cells (spread assay). The format is cell-based. The procedure:
Assay for Inhibition of HIV-1 Replication
Assays for the inhibition of acute HIV-1 infection of T-lymphoid cells were conducted in accordance with Vacca, J. P. et al, Proc. Natl. Acad. Sci. USA 1994, 91: 4096.

The test system of data set [2] is virus containing Y143R mutation in the integrase gene. The following applies: k = IC50(mutant)/IC50(wild type). The protocol: (§1) An assay for measuring the inhibition of acute HIV infection with HeLa P4-2 cells in a single cycle infectivity assay was conducted using methods described in Joyce et al., J. Biol. Chem. 2002, 277: 45811, Hazuda et al., Science 2000, 287: 646, and Kimpton et al, J. Virol. 1992, 66: 2232. Proviral plasmids encoding viruses containing specific mutations in the integrase gene (N155H, Q148R, Y143R, E92Q, or G140S/Q148H) were generated by site-directed mutagenesis, and viruses were produced by transfecting 293T cells with the appropriate proviral plasmids.

For data set [3], the system named is virus containing G140S/Q148H mutation in the integrase gene. As to conditions: k = IC50(mutant)/IC50(wild type). The protocol: as §1
The test system of data set [4] is virus containing N155H mutation in the integrase gene. As to conditions: k = IC50(mutant)/IC50(wild type). The protocol: as §1
Data set [5] relates to virus containing Q148R mutation in the integrase gene. The following applies: k = IC50(mutant)/IC50(wild type). The procedure:
as §1

Data set [6] relates to virus containing E92Q mutation in the integrase gene. The following applies: k = IC50(mutant)/IC50(wild type). The procedure:
as §1

The mark [7] stands for this setting: Human immunodeficiency virus 1, IIIB, HeLaP4-2, HeLa P4-2 cells, single cycle infectivity, wild type IIIB, read-out: wild type IIIB IC50.
The mark [8] stands for this setting: HeLa P4-2 cells, single cycle infectivity, wild type IIIB, read-out: wild type IIIB IC50.

Where two headings read alike, the source gives them in different places.

Turning to `Cc1cc(CNC(=O)c2nc3n(c(=O)c2O)[C@@H](C)COC[C@H]3N(C)C(=O)C(=O)N(C)C)ccc1F` [Compound 4A, N-((6S,10S)-2-{[(4-fluoro-3-methylbenzyl)amino]carbonyl}-3-hydroxy-6-methyl-4-oxo-6,7,9,10-tetrahydro-4H-pyrimido[1,2-d][1,4]oxazepin-10-yl)-N,N′,N′-trimethylethanediamide], the IC50 was determined as 38 nM in data set [1] (read-out: IC50) and 19 nM in the data set on wild type IIIB (setting [7]). Moreover, the “IC95 (nM) in the presence of 10% FBS” value with HIV-1 stood at 10 nM. In addition, the “Number of fold shift in IC50 versus wild type IIIB, Y143R” value (shortened to “Number of fold shift … Y143R”) in data set [2] is on record as 2. Moreover, the “Number of fold shift in IC50 versus wild type IIIB, G140S/Q148H” value (“Number of fold shift … G140S/Q148H” below) in data set [3] is listed as 12. In addition, the “Number of fold shift in IC50 versus wild type IIIB, N155H” value (“Number of fold shift … N155H” below) in data set [4] is 2. Besides, the “Number of fold shift in IC50 versus wild type IIIB, Q148R” value (from here on “Number of fold shift … Q148R”) in data set [5] came out at 2. Moreover, the “Number of fold shift in IC50 versus wild type IIIB, E92Q” value (shortened to “Number of fold shift … E92Q”) in data set [6] came to 1.

For the molecule `CC1(C)OCCn2c1nc(C(=O)NCc1ccc(F)cc1)c(O)c2=O` [Compound Z, N-[(4-fluorophenyl)methyl]-3-hydroxy-9,9-dimethyl-4-oxo-4,6,7,9-tetrahydro-6H-pyrimido[2,1-c][1,4]oxazine-2-carboxamide, reference compound], the IC50 in the data set on wild type IIIB (setting [8]) was 34 nM. Besides, in data set [2], the “Number of fold shift … Y143R” value is given as 1. For the same molecule, the “Number of fold shift … G140S/Q148H” value in data set [3] was more than 34. In data set [4], the “Number of fold shift … N155H” value was determined as 32. Besides, in data set [5], the “Number of fold shift … Q148R” value is listed as more than 34. For the same molecule, the “Number of fold shift … E92Q” value in data set [6] came out at 26.

For `CC[C@H]1COC[C@H](N(C)C(=O)C(=O)N(C)C)c2nc(C(=O)NCc3ccc(F)cc3)c(O)c(=O)n21` [Compound 5B], the IC50 in data set [1] (read-out: IC50) is 40 nM; with wild type IIIB (setting [7]), 42 nM. In the data set on HIV-1, the “IC95 (nM) in the presence of 10% FBS” value was found to be 10 nM. In addition, in data set [2], the “Number of fold shift … Y143R” value is on record as 2. The “Number of fold shift … G140S/Q148H” value in data set [3] worked out at 11. In addition, the “Number of fold shift … N155H” value in data set [4] turned out to be 3. Further, the “Number of fold shift … Q148R” value in data set [5] is on record as 1. Moreover, the “Number of fold shift … E92Q” value in data set [6] is 1.

Turning to `CC[C@H]1COC[C@@H](N(C)C(=O)C(=O)N(C)C)c2nc(C(=O)NCc3ccc(F)cc3)c(O)c(=O)n21` [Compound 5A, N-((6S,10S)-6-ethyl-2-{[(4-fluorobenzyl)amino]carbonyl}-3-hydroxy-4-oxo-6,7,9,10-tetrahydro-4-pyrimido[1,2-][1,4]oxazepin-10-yl)-N N′N′-trimethylethanediamide], the IC50 in data set [1] (read-out: IC50) amounted to 46 nM; in the data set on wild type IIIB (setting [7]), 28 nM. The “IC95 (nM) in the presence of 10% FBS” value with HIV-1 was found to be 12 nM. Also, the “Number of fold shift … Y143R” value in data set [2] was determined as 1. Besides, in data set [3], the “Number of fold shift … G140S/Q148H” value was determined as 4. Moreover, the “Number of fold shift … N155H” value in data set [4] is 1. Further, the “Number of fold shift … Q148R” value in data set [5] came to 1. Further, the “Number of fold shift … E92Q” value in data set [6] came out at 2.

As for `CN(C)C(=O)C(=O)N(C)C1CCCCn2c1nc(C(=O)NCc1ccc(F)cc1)c(O)c2=O` (single isomer, unassigned; (-)) [Compound Y, (−)N-(2-{[(4-fluorobenzyl)amino]carbonyl}-3-hydroxy-4-oxo-4,6,7,8,9,10-hexahydropyrimido[1,2-a]azepin-10-yl)-N,N′,N′-trimethylethanediamide, reference compound], in the data set with wild type IIIB (setting [7]), the IC50 was determined as 16 nM. In addition, the “Number of fold shift … Y143R” value in data set [2] stood at 1. Moreover, the “Number of fold shift … G140S/Q148H” value in data set [3] was 406. Moreover, in data set [4], the “Number of fold shift … N155H” value was determined as 15. The “Number of fold shift … Q148R” value in data set [5] was 26. Also, the “Number of fold shift … E92Q” value in data set [6] is 4.

Consider `CO[C@@]1(C)CC[C@H](N(C)C(=O)C(=O)N(C)C)c2nc(C(=O)NCc3ccc(F)c(C)c3)c(O)c(=O)n2C1` [Compound 2B, N-((7S,10S)-2-{[(4-fluoro-3-methylbenzyl)amino]carbonyl}-3-hydroxy-7-methoxy-7-methyl-4-oxo-4,6,7,8,9,10-hexahydropyrimido[1,2-a]azepin-10-yl)-N,N′,N′-trimethylethanediamide], for which the IC50 was determined as 41 nM in data set [1] (IC50 (nM)) and 8 nM in the data set with wild type IIIB (setting [7]). For the same molecule, the “IC95 (nM) in the presence of 10% FBS” value in the data set on HIV-1 amounted to 9 nM. Moreover, the “Number of fold shift … Y143R” value in data set [2] is 3. The “Number of fold shift … G140S/Q148H” value in data set [3] was determined as 190. Moreover, the “Number of fold shift … N155H” value in data set [4] stood at 24. Besides, the “Number of fold shift … Q148R” value in data set [5] is 24.

Take `Cc1cc(CNC(=O)c2nc3n(c(=O)c2O)[C@@H](C)COC[C@@H]3N(C)C(=O)C(=O)N(C)C)ccc1F` [Compound 4B, N-((6S,10R)-2-{[(4-fluoro-3-methylbenzyl)amino]carbonyl}-3-hydroxy-6-methyl-4-oxo-6,7,9,10-tetrahydro-4H-pyrimido[1,2-d][1,4]oxazepin-10-yl)-N,N′,N′-trimethylethanediamide]: the half-inhibitory concentration (IC50) in data set [1] (read-out: IC50) came to 39 nM; in the data set with wild type IIIB (setting [7]) it was 32 nM. For the same molecule, in the data set with HIV-1, the “IC95 (nM) in the presence of 10% FBS” value turned out to be 7 nM. Besides, in data set [2], the “Number of fold shift … Y143R” value was found to be 2. Moreover, the “Number of fold shift … G140S/Q148H” value in data set [3] was determined as 20. The “Number of fold shift … N155H” value in data set [4] came to 2. In data set [5], the “Number of fold shift … Q148R” value turned out to be 3.

For `Cc1cc(CNC(=O)c2nc3n(c(=O)c2O)CC(C)(C)CC[C@@H]3N(C)C(=O)C(=O)N(C)C)ccc1F` [Compound 1B, N-((10S)-2-{[(4-fluoro-3-methylbenzyl)amino]carbonyl}-3-hydroxy-7,7-dimethyl-4-oxo-4,6,7,8,9,10-hexahydropyrimido[1,2-a]azepin-10-yl)-N,N′,N′-trimethylethanediamide], the values for the IC50 (in data set [1] (read-out: IC50); in the data set on wild type IIIB (setting [7])) were 38 nM and 13 nM, respectively. Besides, in the data set on HIV-1, the “IC95 (nM) in the presence of 10% FBS” value is listed as 10 nM. In addition, in data set [2], the “Number of fold shift … Y143R” value was found to be 1. For the same molecule, the “Number of fold shift … G140S/Q148H” value in data set [3] turned out to be 34. Besides, in data set [4], the “Number of fold shift … N155H” value is given as 14. For the same molecule, in data set [5], the “Number of fold shift … Q148R” value is given as 12.

In the case of `COC1(C)CCC(N(C)C(=O)C(=O)N(C)C)c2nc(C(=O)NCc3ccc(F)c(C)c3)c(O)c(=O)n2C1` (single isomer, unassigned) [Compound 2C, N-(2-{[(4-fluoro-3-methylbenzyl)amino]carbonyl}-3-hydroxy-7-methoxy-7-methyl-4-oxo-4,6,7,8,9,10-hexahydropyrimido[1,2-a]azepin-10-yl)-N,N′,N′-trimethylethanediamide], the values for the IC50 (in data set [1] (IC50 (nM)); in the data set on wild type IIIB (setting [8])) were 73 nM and 8 nM, respectively. Also, the “IC95 (nM) in the presence of 10% FBS” value in the data set with HIV-1 amounted to 9 nM. Further, the “Number of fold shift … Y143R” value in data set [2] came to 3. For the same molecule, the “Number of fold shift … G140S/Q148H” value in data set [3] was found to be 68. In addition, the “Number of fold shift … N155H” value in data set [4] came to 19. In addition, the “Number of fold shift … Q148R” value in data set [5] stood at 22.

Regarding `CCN(C(=O)C(=O)N(C)C)[C@@H]1CC[C@H](OC)Cn2c1nc(C(=O)NCc1ccc(F)cc1)c(O)c2=O` [Compound 6A, N-ethyl-N-((7S,10R)-2-{[(4-fluorobenzyl)amino]carbonyl}-3-hydroxy-7-methoxy-4-oxo-4,6,7,8,9,10-hexahydropyrimido [1,2-a]azepin-10-yl)-N′,N′-dimethylethanediamide], the IC50 in the data set on wild type IIIB (setting [7]) is 16 nM. For the same molecule, the “IC95 (nM) in the presence of 10% FBS” value in the data set on HIV-1 is given as 12 nM. Besides, in data set [2], the “Number of fold shift … Y143R” value came to 3. For the same molecule, the “Number of fold shift … G140S/Q148H” value in data set [3] amounted to 2. Besides, in data set [4], the “Number of fold shift … N155H” value was 2. Also, the “Number of fold shift … Q148R” value in data set [5] stood at 1. Further, in data set [6], the “Number of fold shift … E92Q” value is listed as 3.

With `Cc1nnc(C(=O)NC(C)(C)c2nc(C(=O)NCc3ccc(F)cc3)c(O)c(=O)n2C)o1` [Compound X, raltegravir, reference compound], the IC50 in the data set with wild type IIIB (Human immunodeficiency virus 1, IIIB, HeLaP4-2, read-out: wild type IIIB IC50 (nM)) was 52 nM. In addition, in data set [2], the “Number of fold shift … Y143R” value is 15. In addition, the “Number of fold shift … G140S/Q148H” value in data set [3] is reported as 397. Also, the “Number of fold shift … N155H” value in data set [4] is recorded as 13. Besides, the “Number of fold shift … Q148R” value in data set [5] is reported as 22. For the same molecule, the “Number of fold shift … E92Q” value in data set [6] is 3.

The IC50 is the concentration that gives 50% inhibition.

The values above are taken from patent US8513234B2, “HIV integrase inhibitors” (Merck Sharp & Dohme Corp., priority 2008, dated 2013).
